For orientation: IC50 means the midpoint of a concentration-inhibition curve.

The test system of test [1] is SK-BR-3 cells. Kind of test: Determination of cell growth inhibition (crystal violet staining method). The class given is cell-based. The settings on record: Homo sapiens; breast cancer cells SK-BR-3, 72 hours culture with test substance. As for the experimental part: Cell growth was assayed by a crystal violet staining method. SK-BR-3 cells (HTB-30) purchased from American Type Culture Collection were inoculated at a concentration of 5,000 cells/well to a 96-well plate (#353075, BD Biosciences). After culture at 37° C. for 24 hours in a 5% CO2 incubator, each test substance was added thereto, and the cells were further cultured for 72 hours. A 25% glutaraldehyde solution (#17025-25, Nacalai Tesque, Inc.) was added thereto at a concentration of 20 μL/well per 200 μL of the medium, and the plate was incubated at room temperature for 20 minutes to fix the cells. The plate was washed with water and dried. Then, a solution containing 0.05% crystal violet (#038-17792, Wako Pure Chemical Industries, Ltd.) and 20% methanol was added thereto at a concentration of 100 μL/well, and the plate was incubated at room temperature for 20 minutes to stain the cells. The plate was washed with water and dried. A mixed solution of 0.05 M NaH2PO4 and ethanol (mixed in equal amounts) was added thereto at a concentration of 100 μL/well. Absorbance was measured at 540 nm using a microplate reader (MTP-450, Corona Electric Co., Ltd.) and used as an index for the number of cells per well. Percent inhibition (%) of cell growth by each compound of the present invention was determined according to the formula shown below with the absorbance of no drug addition group as a control. […] Percent inhibition (%)=(C−T)/C×100, wherein T: Absorbance of well with test substance addition C: Absorbance of well without test substance addition.

For test [2], the target named is human HSP90 alpha protein (N-terminal, amino acids 2 to 236) (Homo sapiens (Human), UniProt P07900). Kind of test: Determination of HSP90-binding activity (AlphaScreen competitive assay with biotinylated geldanamycin). The settings on record: inhibition of binding of biotinylated geldanamycin to purified HSP90 N-terminal protein, read-out: HSP-binding activity IC50. As for the experimental part: First, a purified HSP90 solution was prepared as follows: a human HSP90 alpha gene (NCBI Reference Sequence accession no. NM-005348) region corresponding to amino acids 2 to 236 of human HSP90 alpha protein (NCBI Reference Sequence accession no. NP-005339; full length: 732 amino acids) was inserted to pET-19b (Novagen; Merck KGaA) to construct a plasmid pET-HS[…] for expression of the HSP90 N-terminal protein having a His-tag at the N-terminus. E. coli (BL21(DE3), Stratagene Corp.) was transformed with pET-HS[…] and then cultured at 37° C. for 4 hours in the presence of 0.5 mM isopropyl-beta-D-thiogalactopyranoside (Sigma-Aldrich Corp.). The collected E. coli was suspended in a lysis buffer (50 mM Tris-HCl (pH 7.5), 200 mM NaCl) and sonicated. The sonicated cell solution was centrifuged (40,000×g, 20 minutes), and the supernatant was used as a crude extract. This crude extract was fractionated using Ni Sepharose High Performance (GE Healthcare Japan Corp.) chromatography and HiLoad 26/60 Superdex 75 pg (GE Healthcare Japan Corp.). Then, a fraction of HSP90 protein concentrates was prepared in a solution containing 50 mM Tris-HCl (pH 7.5) and 20% glycerol as a purified HSP90 solution. The purified HSP90 solution was divided and stored at -80° C. until use. HSP90-binding activity was determined by an AlphaScreen competitive assay system. […] After reaction at room temperature for 2 hours, biotinylated geldanamycin was added thereto at a concentration of 40 nM/well and further reacted for 1 hour. Detection mix (20 mM HEPES-KOH (pH 7.5), 0.5% BSA, 0.04 mg/mL Nickel Chelate Acceptor beads, 0.04 mg/mL Streptavidin-coated Donor beads) (#6760619C, PerkinElmer, Inc.) was added to each well in an amount equal to the amount of the reaction solution and reacted at room temperature for 1 hour in the dark. Then, fluorescence intensity was measured using Multilabel Plate Reader EnVision (PerkinElmer, Inc.). Percent inhibition (%) of the binding of biotinylated geldanamycin by each compound of the present invention was determined according to the formula shown below with the fluorescence signal of no test substance addition group as a control. […] Percent inhibition (%)=(C-T)/C×100, wherein T: Signal of well with test substance addition C: Signal of well without test substance addition.
(In general: Alpha assays give light when donor and acceptor beads are brought close together.)

As to `NC(=O)c1ccc(-c2cccc3c(-c4cnc5ccccc5c4)nccc23)cc1NC1CCC(O)CC1` (stereo not drawn) [Comp. Ex. 1, 2-(4-Hydroxycyclohexylamino)-4-(1-(quinolin-3-yl)isoquinolin-5-yl)benzamide, reference compound], the concentration for half-maximal inhibition (IC50) was 8420 nM in test [1] and above 100000 nM in test [2].

Take `NC(=O)c1ccc(-c2cccc3c(-c4cnc5ccccc5c4)ncnc23)cc1NC1CCC(O)CC1` (stereo not drawn) [Comp. Ex. 2, 2-(4-Hydroxycyclohexylamino)-4-(4-(quinolin-3-yl)quinazolin-8-yl)benzamide, reference compound]: the IC50 in test [1] was above 10000 nM; in test [2], above 100000 nM.

Regarding `CCNc1cc(-c2cccc3c(-n4cnc(-c5cnn(C)c5)c4)nccc23)ccc1C(N)=O` [Comp. Ex. 3, 2-(Ethylamino)-4-(1-(4-(1-methyl-1H-pyrazol-4-yl)-1H-imidazol-1-yl)isoquinolin-5-yl)benzamide, reference compound], the IC50 in test [1] was 7630 nM; in test [2], above 100000 nM.

Regarding `CCNc1cc(-c2nccc3c(-n4cnc(-c5cnn(C)c5)c4)cccc23)ccc1C(N)=O` [Example 1, 2-(Ethylamino)-4-(5-(4-(1-methyl-1H-pyrazol-4-yl)-1H-imidazol-1-yl)isoquinolin-1-yl)benzamide], the IC50 in test [1] was 120 nM.

In the case of `NC(=O)c1ccc(-c2nccc3c(-c4cncc(N)c4)cccc23)cc1NC1CCC(O)CC1` (stereo not drawn) [Example 2, 4-(5-(5-Aminopyridin-3-yl)isoquinolin-1-yl)-2-(4-hydroxycyclohexylamino)benzamide], the IC50 in test [1] worked out at 150 nM.

`CCNc1cc(-c2cc(C(F)(F)F)nc3c(-n4cnc(-c5cnn(C)c5)c4)cccc23)ccc1C(N)=O` [Example 3, 2-(Ethylamino)-4-(8-(4-(1-methyl-1H-pyrazol-4-yl)-1H-imidazol-1-yl)-2-(trifluoromethyl)quinolin-4-yl)benzamide]: the IC50 was 10 nM in test [1] and 190 nM in test [2].

Consider `Cn1cc(-c2cn(-c3cccc4c(-c5ccc(C(N)=O)c(N)c5)nc(C(F)(F)F)nc34)cn2)cn1` [Example 4, 2-Amino-4-(8-(4-(1-methyl-1H-pyrazol-4-yl)-1H-imidazol-1-yl)-2-(trifluoromethyl)quinazolin-4-yl)benzamide], for which the IC50 in test [1] was determined as 280 nM; in test [2], 340 nM.

Take `CC(C)(C)Nc1cc(-c2cc(C(F)(F)F)nc3c(-c4cnc5ccccc5c4)cccc23)ccc1C(N)=O` [Example 5, 2-(Tert-butylamino)-4-(2′-(trifluoromethyl)-3,8′-biquinolin-4′-yl)benzamide]: the results for the IC50 in test [1] and in test [2] were 90 nM and 1440 nM, respectively.

On to `NC(=O)c1ccc(-c2nccc3c(-c4cnc5ccccc5c4)cccc23)cc1NC1CCC(O)CC1` (stereo not drawn) [Example 6, 2-(4-Hydroxycyclohexylamino)-4-(5-(quinolin-3-yl)isoquinolin-1-yl)benzamide], for which the IC50 in test [1] turned out to be 30 nM; in test [2], 170 nM.

With `Cc1cc2c(-c3cnc4ccccc4c3)cccc2c(-c2ccc(C(N)=O)c(NC3CCC(O)CC3)c2)n1` (stereo not drawn) [Example 7, 2-(4-Hydroxycyclohexylamino)-4-(3-methyl-5-(quinolin-3-yl)isoquinolin-1-yl)benzamide], the IC50 in test [1] turned out to be 10 nM; in test [2], 150 nM.

On to `Cc1cc2c(-c3cnc4ccccc4c3)cccc2c(-c2ccc(C(N)=O)c(NC3CCC(O)CC3)c2)[n+]1[O-]` (stereo not drawn) [Example 8, 1-(4-Carbamoyl-3-(4-hydroxycyclohexylamino)phenyl)-3-methyl-5-(quinolin-3-yl)isoquinoline-2-oxide], for which the IC50 came to 20 nM in test [1] and 100 nM in test [2].

As to `Cc1ccc2ncc(-c3cccc4c(-c5ccc(C(N)=O)c(NC6CCC(O)CC6)c5)nccc34)cc2c1` (stereo not drawn) [Example 9, 2-(4-Hydroxycyclohexylamino)-4-(5-(6-methylquinolin-3-yl)isoquinolin-1-yl)benzamide], the IC50 in test [1] amounted to 50 nM; in test [2] it was 270 nM.

As to `Cc1ccc2cc(-c3cccc4c(-c5ccc(C(N)=O)c(NC6CCC(O)CC6)c5)nccc34)cnc2c1` (stereo not drawn) [Example 11, 2-(4-Hydroxycyclohexylamino)-4-(5-(7-methylquinolin-3-yl)isoquinolin-1-yl)benzamide], the values for the IC50 in test [1] and in test [2] were 110 nM and 480 nM, respectively.

On to `NC(=O)c1ccc(-c2nccc3c(-c4cnc5nc[nH]c5c4)cccc23)cc1NC1CCC(O)CC1` (stereo not drawn) [Example 12], for which the figures for the IC50 in test [1] and in test [2] were 170 nM and 70 nM, respectively.

With `NC(=O)c1ccc(-c2nccc3c(-c4cnc5nccnc5c4)cccc23)cc1NC1CCC(O)CC1` (stereo not drawn) [Example 13, 2-(4-Hydroxycyclohexylamino)-4-(5-(pyrido[2,3-b]pyrazin-7-yl)isoquinolin-1-yl)benzamide], the IC50 is 580 nM in test [1] and 450 nM in test [2].

As to `NCC(=O)OC1CCC(Nc2cc(-c3nccc4c(-c5cnc6ccccc6c5)cccc34)ccc2C(N)=O)CC1` (stereo not drawn) [Example 33, 4-(2-Carbamoyl-5-(5-(quinolin-3-yl)isoquinolin-1-yl)phenylamino)cyclohexyl-2-aminoacetate], in test [1], the concentration for half-maximal inhibition (IC50) is 80 nM.

`CC(C)Cn1cc(-c2cn(-c3cccc4c(-c5ccc(C(N)=O)c(NC6CCC(O)CC6)c5)nccc34)cn2)cn1` (stereo not drawn) [Example 52, 2-(4-Hydroxycyclohexylamino)-4-(5-(4-(1-isobutyl-1H-pyrazol-4-yl)-1H-imidazol-1-yl)isoquinolin-1-yl)benzamide]: the 50% inhibitory concentration (IC50) in test [1] was determined as 110 nM.

In turn, `NC(=O)c1ccc(-c2nccc3c(-n4cnc(Br)c4)cccc23)cc1NC1CCC(O)CC1` (stereo not drawn) [Example 54, 4-(5-(4-Bromo-1H-imidazol-1-yl)isoquinolin-1-yl)-2-(4-hydroxycyclohexylamino)benzamide] came in with a concentration for half-maximal inhibition (IC50) in test [1] of 480 nM.

`Cn1cc(-c2cn(-c3cccc4c(-c5ccc(C(N)=O)c(NC6CCCCCC6)c5)nccc34)cn2)cn1` [Example 63, 2-(Cycloheptylamino)-4-(5-(4-(1-methyl-1H-pyrazol-4-yl)-1H-imidazol-1-yl)isoquinolin-1-yl)benzamide]: the IC50 in test [1] came out at 30 nM.

`Cn1cc(-c2cn(-c3cccc4c(-c5ccc(C(N)=O)c(NCC6CC6)c5)cc(C(F)(F)F)nc34)cn2)cn1` [Example 65, 2-(Cyclopropylmethylamino)-4-(8-(4-(1-methyl-1H-pyrazol-4-yl)-1H-imidazol-1-yl)-2-(trifluoromethyl)quinolin-4-yl)benzamide] showed an IC50 in test [1] of 10 nM.

Molecule `CCNc1cc(-c2cc(C(F)(F)F)nc3c(-n4cnc(-c5cnn(C(F)F)c5)c4)cccc23)ccc1C(N)=O` [Example 91, 4-(8-(4-(1-Difluoromethyl-1H-pyrazol-4-yl)-1H-imidazol-1-yl)-2-(trifluoromethyl)quinolin-4-yl)-2-(ethylamino)benzamide] registered an IC50 in test [1] of 10 nM.

On to `Cn1cc(-c2cn(-c3cccc4c(-c5ccc(C(N)=O)c(N)c5)cc(C5CC5)nc34)cn2)cn1` [Example 106, 2-Amino-4-(2-cyclopropyl-8-(4-(1-methyl-1H-pyrazol-4-yl)-1H-imidazol-1-yl)quinolin-4-yl)benzamide], for which, in test [2], the IC50 was 100 nM.

On to `CC(C)(C)Nc1cc(-c2cc(C(F)(F)F)nc3c(-n4cnc(-c5ccccc5)c4)cccc23)ccc1C(N)=O` [Example 107, 2-(Tert-butylamino)-4-(8-(4-phenyl-1H-imidazol-1-yl)-2-(trifluoromethyl)quinolin-4-yl)benzamide], for which the IC50 in test [1] was 240 nM.

For the origin of these results see patent publication US8912181B2 (Taiho Pharmaceutical Co., Ltd., priority 2011, dated 2014).
